Data on 22 compounds can be found in US11759462B2, “Spirocyclic compounds as tryptophan hydroxylase inhibitors” (priority 2013, dated 2023).

Like-named read-outs stand apart in the source and are kept apart here.

The test has as its target T1, Recombinant human TPH1 (MBP tagged) (Homo sapiens, UniProt P17752).
T1 construct: cloning full length human TPH1 cDNA in to a bacterial pMAL-c5E expression vector; made in house; host or cells: E. coli BL21 (DE3)
T1 sequence (P17752 1-444): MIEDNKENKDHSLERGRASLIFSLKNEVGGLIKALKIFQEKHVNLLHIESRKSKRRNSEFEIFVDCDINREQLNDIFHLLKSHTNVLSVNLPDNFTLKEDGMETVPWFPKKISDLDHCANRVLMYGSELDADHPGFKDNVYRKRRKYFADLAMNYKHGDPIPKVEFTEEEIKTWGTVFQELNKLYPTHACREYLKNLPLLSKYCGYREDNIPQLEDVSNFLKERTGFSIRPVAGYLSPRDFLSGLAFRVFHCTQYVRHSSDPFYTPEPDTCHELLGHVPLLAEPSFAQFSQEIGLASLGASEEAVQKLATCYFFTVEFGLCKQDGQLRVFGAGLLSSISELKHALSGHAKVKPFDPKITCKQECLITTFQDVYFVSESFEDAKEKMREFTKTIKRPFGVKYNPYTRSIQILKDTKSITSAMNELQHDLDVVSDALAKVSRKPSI
The test can be described thus: TPH1 in vitro inhibition assay (kinetic fluorescence). It counts as biochemical. The gist of the method: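 Final mix: 15 nM MBP-TPH1, 30 μM Trp, 36 μM 6-methyltetrahydropterin, 25 μM ferrous ammonium sulfate, 50 mM MES pH 7.1, 1% DMSO, room temperature.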

Setting [1] is: read-out: TPH1 Range (TPH1 inhibition IC50).
The mark [2] stands for this setting: TPH1 Range (TPH1 inhibition IC50).

Turning to `CNS(=O)(=O)c1cccc(-c2cc(Cl)ccc2[C@@H](Oc2cc(N3CCC4(CC3)CN[C@H](C(=O)O)C4)nc(N)n2)C(F)(F)F)c1` [Example 34ck, (S)-8-(2-amino-6-((R)-1-(5-chloro-3′-(N-methylsulfamoyl)-[1,1′-biphenyl]-2-yl)-2,2,2-trifluoroethoxy)pyrimidin-4-yl)-2,8-diazaspiro[4.5]decane-3-carboxylic acid], under setting [1], the IC50 is 50 to 300 nM.

Consider `CN(C)S(=O)(=O)c1cccc(-c2cc(Cl)ccc2[C@@H](Oc2cc(N3CCC4(CC3)CN[C@H](C(=O)O)C4)nc(N)n2)C(F)(F)F)c1` [Example 34cl, (S)-8-(2-amino-6-((R)-1-(5-chloro-3′-(N,N-dimethylsulfamoyl)-[1,1′-biphenyl]-2-yl)-2,2,2-trifluoroethoxy)pyrimidin-4-yl)-2,8-diazaspiro[4.5]decane-3-carboxylic acid], for which the IC50 under setting [2] fell in the range of 50 to 300 nM.

As to `CNC(=O)c1cccc(-c2cc(Cl)ccc2[C@@H](Oc2cc(N3CCC4(CC3)CN[C@H](C(=O)O)C4)nc(N)n2)C(F)(F)F)c1` [Example 34cm, (S)-8-(2-amino-6-((R)-1-(5-chloro-3′-(methylcarbamoyl)-[1,1′-biphenyl]-2-yl)-2,2,2-trifluoroethoxy)pyrimidin-4-yl)-2,8-diazaspiro[4.5]decane-3-carboxylic acid], the IC50 under setting [1] was in the range of 50 to 300 nM.

Consider `CN(C)C(=O)c1cccc(-c2cc(Cl)ccc2[C@@H](Oc2cc(N3CCC4(CC3)CN[C@H](C(=O)O)C4)nc(N)n2)C(F)(F)F)c1` [Example 34cn, (S)-8-(2-amino-6-((R)-1-(5-chloro-3′-(dimethylcarbamoyl)-[1,1′-biphenyl]-2-yl)-2,2,2-trifluoroethoxy)pyrimidin-4-yl)-2,8-diazaspiro[4.5]decane-3-carboxylic acid], for which, under setting [1], the IC50 was 50 to 300 nM.

For `CCN(CC)C(=O)c1cccc(-c2cc(Cl)ccc2[C@@H](Oc2cc(N3CCC4(CC3)CN[C@H](C(=O)O)C4)nc(N)n2)C(F)(F)F)c1` [Example 34co, (S)-8-(2-amino-6-((R)-1-(5-chloro-3′-(diethylcarbamoyl)-[1,1′-biphenyl]-2-yl)-2,2,2-trifluoroethoxy)pyrimidin-4-yl)-2,8-diazaspiro[4.5]decane-3-carboxylic acid], under setting [1], the IC50 was in the range of 50 to 300 nM.

Consider `Nc1nc(O[C@H](c2ccc(Cl)cc2-c2cccc3[nH]cnc23)C(F)(F)F)cc(N2CCC3(CC2)CN[C@H](C(=O)O)C3)n1` [Example 34cp, (S)-8-(6-((R)-1-(2-(1H-benzo[d]imidazol-4-yl)-4-chlorophenyl)-2,2,2-trifluoroethoxy)-2-aminopyrimidin-4-yl)-2,8-diazaspiro[4.5]decane-3-carboxylic acid], for which, under setting [1], the IC50 is 50 to 300 nM.

For the compound `Nc1nc(O[C@H](c2ccc(Cl)cc2-c2cccc(C(=O)N3CCNCC3)c2)C(F)(F)F)cc(N2CCC3(CC2)CN[C@H](C(=O)O)C3)n1` [Example 34cq, (S)-8-(2-amino-6-((R)-1-(5-chloro-3′-(piperazine-1-carbonyl)-[1,1′-biphenyl]-2-yl)-2,2,2-trifluoroethoxy)pyrimidin-4-yl)-2,8-diazaspiro[4.5]decane-3-carboxylic acid], under setting [1], the IC50 is below 50 nM.

With `Nc1nc(O[C@H](c2ccc(Cl)cc2-c2cccc(C(=O)N3CCN(C4CC4)CC3)c2)C(F)(F)F)cc(N2CCC3(CC2)CN[C@H](C(=O)O)C3)n1` [Example 34cr, (S)-8-(2-amino-6-((R)-1-(5-chloro-3′-(4-cyclopropylpiperazine-1-carbonyl)-[1,1′-biphenyl]-2-yl)-2,2,2-trifluoroethoxy)pyrimidin-4-yl)-2,8-diazaspiro[4.5]decane-3-carboxylic acid], the IC50 under setting [1] was 50 to 300 nM.

`Nc1nc(O[C@H](c2ccc(Cl)cc2-c2ccccn2)C(F)(F)F)cc(N2CCC3(CC2)CN[C@H](C(=O)O)C3)n1` [Example 34cs, (S)-8-(2-amino-6-((R)-1-(4-chloro-2-(pyridin-2-yl)phenyl)-2,2,2-trifluoroethoxy)pyrimidin-4-yl)-2,8-diazaspiro[4.5]decane-3-carboxylic acid]: under setting [1], the 50% inhibitory concentration (IC50) was in the range of 50 to 300 nM.

Take `Nc1nc(O[C@H](c2ccc(Cl)cc2-c2ncccn2)C(F)(F)F)cc(N2CCC3(CC2)CN[C@H](C(=O)O)C3)n1` [Example 34ct, (S)-8-(2-amino-6-((R)-1-(4-chloro-2-(pyrimidin-2-yl)phenyl)-2,2,2-trifluoroethoxy)pyrimidin-4-yl)-2,8-diazaspiro[4.5]decane-3-carboxylic acid]: the IC50 under setting [1] is below 50 nM.

On to `Nc1nc(O[C@H](c2ccc(Cl)cc2-c2cnccn2)C(F)(F)F)cc(N2CCC3(CC2)CN[C@H](C(=O)O)C3)n1` [Example 34cu, (S)-8-(2-amino-6-((R)-1-(4-chloro-2-(pyrazin-2-yl)phenyl)-2,2,2-trifluoroethoxy)pyrimidin-4-yl)-2,8-diazaspiro[4.5]decane-3-carboxylic acid], for which the concentration for half-maximal inhibition (IC50) under setting [1] is below 50 nM.

Turning to `COCCOc1cccc(-c2cc(Cl)ccc2[C@@H](Oc2cc(N3CCC4(CC3)CN[C@H](C(=O)O)C4)nc(N)n2)C(F)(F)F)c1` [Example 34cv, (S)-8-(2-amino-6-((R)-1-(5-chloro-3′-(2-methoxyethoxy)-[1,1′-biphenyl]-2-yl)-2,2,2-trifluoroethoxy)pyrimidin-4-yl)-2,8-diazaspiro[4.5]decane-3-carboxylic acid], the IC50 under setting [1] is below 50 nM.

On to `Nc1nc(O[C@H](c2ccc(Cl)cc2-c2ccccc2N)C(F)(F)F)cc(N2CCC3(CC2)CNC(C(=O)O)C3)n1` (stereo partly drawn) [Example 34d, 8-(2-amino-6-((R)-1-(2′-amino-5-chloro-[1,1′-biphenyl]-2-yl)-2,2,2-trifluoroethoxy)pyrimidin-4-yl)-2,8-diazaspiro[4.5]decane-3-carboxylic acid], for which, under setting [1], the IC50 lay in the range of 50 to 300 nM.

Take `Nc1nc(O[C@H](c2ccc(Cl)cc2-c2cccc([N+](=O)[O-])c2)C(F)(F)F)cc(N2CCC3(CC2)CNC(C(=O)O)C3)n1` (stereo partly drawn) [Example 34e, 8-(2-amino-6-((R)-1-(5-chloro-3′-nitro-[1,1′-biphenyl]-2-yl)-2,2,2-trifluoroethoxy)pyrimidin-4-yl)-2,8-diazaspiro[4.5]decane-3-carboxylic acid]: under setting [1], the IC50 was 50 to 300 nM.

Consider `Nc1cccc(-c2cc(Cl)ccc2[C@@H](Oc2cc(N3CCC4(CC3)CNC(C(=O)O)C4)nc(N)n2)C(F)(F)F)c1` (stereo partly drawn) [Example 34f, 8-(2-amino-6-((R)-1-(3′-amino-5-chloro-[1,1′-biphenyl]-2-yl)-2,2,2-trifluoroethoxy)pyrimidin-4-yl)-2,8-diazaspiro[4.5]decane-3-carboxylic acid], for which the IC50 under setting [1] is 50 to 300 nM.

As to `Nc1nc(O[C@H](c2ccc(Cl)cc2-c2ccc([N+](=O)[O-])cc2)C(F)(F)F)cc(N2CCC3(CC2)CNC(C(=O)O)C3)n1` (stereo partly drawn) [Example 34g, 8-(2-amino-6-((R)-1-(5-chloro-4′-nitro-[1,1′-biphenyl]-2-yl)-2,2,2-trifluoroethoxy)pyrimidin-4-yl)-2,8-diazaspiro[4.5]decane-3-carboxylic acid], the half-maximal inhibitory concentration (IC50) under setting [1] lay in the range of 50 to 300 nM.

Consider `Nc1ccc(-c2cc(Cl)ccc2[C@@H](Oc2cc(N3CCC4(CC3)CNC(C(=O)O)C4)nc(N)n2)C(F)(F)F)cc1` (stereo partly drawn) [Example 34h, 8-(2-amino-6-((R)-1-(4′-amino-5-chloro-[1,1′-biphenyl]-2-yl)-2,2,2-trifluoroethoxy)pyrimidin-4-yl)-2,8-diazaspiro[4.5]decane-3-carboxylic acid], for which the IC50 under setting [1] was 300 to 3000 nM.

As to `Cc1cccc(-c2cc(Cl)ccc2[C@@H](Oc2cc(N3CCC4(CC3)CN[C@H](C(=O)O)C4)nc(N)n2)C(F)(F)F)n1` [Example 34i, (S)-8-(2-amino-6-((R)-1-(4-chloro-2-(6-methylpyridin-2-yl)phenyl)-2,2,2-trifluoroethoxy)pyrimidin-4-yl)-2,8-diazaspiro[4.5]decane-3-carboxylic acid], the IC50 under setting [2] is 50 to 300 nM.

Take `CCS(=O)(=O)c1cccc(-c2cc(Cl)ccc2[C@@H](Oc2cc(N3CCC4(CC3)CN[C@H](C(=O)O)C4)nc(N)n2)C(F)(F)F)c1` [Example 34j, (S)-8-(2-amino-6-((R)-1-(5-chloro-3′-(ethylsulfonyl)-[1,1′-biphenyl]-2-yl)-2,2,2-trifluoroethoxy)pyrimidin-4-yl)-2,8-diazaspiro[4.5]decane-3-carboxylic acid]: the IC50 under setting [1] lay in the range of 50 to 300 nM.

In the case of `CCCS(=O)(=O)c1cccc(-c2cc(Cl)ccc2[C@@H](Oc2cc(N3CCC4(CC3)CN[C@H](C(=O)O)C4)nc(N)n2)C(F)(F)F)c1` [Example 34k, (S)-8-(2-amino-6-((R)-1-(5-chloro-3′-(propylsulfonyl)-[1,1′-biphenyl]-2-yl)-2,2,2-trifluoroethoxy)pyrimidin-4-yl)-2,8-diazaspiro[4.5]decane-3-carboxylic acid], the IC50 under setting [1] fell in the range of 50 to 300 nM.

For `CCCCS(=O)(=O)c1cccc(-c2cc(Cl)ccc2[C@@H](Oc2cc(N3CCC4(CC3)CN[C@H](C(=O)O)C4)nc(N)n2)C(F)(F)F)c1` [Example 34l, (S)-8-(2-amino-6-((R)-1-(3′-(butylsulfonyl)-5-chloro-[1,1′-biphenyl]-2-yl)-2,2,2-trifluoroethoxy)pyrimidin-4-yl)-2,8-diazaspiro[4.5]decane-3-carboxylic acid], under setting [1], the IC50 lay in the range of 50 to 300 nM.

In the case of `Nc1nc(O[C@H](c2ccc(Cl)cc2-c2cccc(CO)c2)C(F)(F)F)cc(N2CCC3(CC2)CN[C@H](C(=O)O)C3)n1` [Example 34m, (S)-8-(2-amino-6-((R)-1-(5-chloro-3′-(hydroxymethyl)-[1,1′-biphenyl]-2-yl)-2,2,2-trifluoroethoxy)pyrimidin-4-yl)-2,8-diazaspiro[4.5]decane-3-carboxylic acid], the 50% inhibitory concentration (IC50) under setting [1] lay within 50 to 300 nM.

Broadly, the IC50 is the concentration needed to halve the response being measured.
